We go through 18 compounds from patent US4551445A, “Derivatives of arginine vasopressin antagonists” (The Medical College of Ohio, priority 1983, dated 1985).

Starred links: 1 amine or outer side, 2 acyl side, 3 side chain; linkers in the order of their positions; H or OH if unused. Positions of bridges follow the written chain, without caps; N, C: chain ends. Non-standard residues stand in square brackets, D forms with d. Residues, ends and D or L forms follow the SMILES beside them. X1 = O=C(CC1(S[*:2])CCCCC1)[*:1]; Cha = N[C@@H](CC1CCCCC1)C(=O)O; Nva = CCC[C@H](N)C(=O)O; Abu = CC[C@H](N)C(=O)O

The test system of one experiment is antidiuretic response to arginine vasopressin (ADH). The experiment is described as follows: Anti-antidiuretic: antagonism of the antidiuretic response to subsequent injections of vasopressin. The class given is in vivo, rats. Particulars: Table 1; estimated in vivo pA2, volume of distribution 67 ml/kg. The protocol: Activity as antidiuretic agonists was determined by intravenous injection of the compounds being evaluated in ethanol-anesthesized water-loaded rats in accordance with Sawyer, Endocrinology, vol. 63 (1958) at 694. Antagonism of the response to subsequent injections of vasopressin was tested as described by Sawyer et al., Science, vol. 212 (1981) at 49.
Antagonistic potencies were determined and expressed as "effective doses" and pA2 values. The "effective dose" is defined as the dose (in nanomoles per kilogram) that reduces the response seen from 2x units of agonist injected 20 min after the dose of antagonist to the response with 1x units of agonist. Estimated in vivo "pA2 " values represent the negative logarithms of the effective doses, divided by the estimated volume of distribution (67 ml/kg).
Regarding `CC(C)[C@@H]1NC(=O)[C@H](Cc2ccccc2)NC(=O)[C@@H](Cc2ccc(O)cc2)NC(=O)CC2(CCCCC2)SSC[C@@H](C(=O)N2CCC[C@H]2C(=O)N[C@@H](CCCNC(=N)N)C(=O)NCC(N)=O)NC(=O)[C@H](CC(N)=O)NC1=O` [d(CH2)5 --D-TyrVAVP, [1-(β-mercapto-β,β-cyclopentamethylenepropionic acid), 2-D-tyrosine, 4-valine]-arginine vasopressin] ([dY]FVNCPRG-NH2; linker N-5 via X1), the “Anti-Antidiuretic pA2” value is 7.51 ± 0.08.

The experiment is the same for the next values; noted with them: Table 2; estimated in vivo pA2, volume of distribution 67 ml/kg.
As for `CC[C@@H]1NC(=O)[C@H](Cc2ccccc2)NC(=O)[C@@H]([C@H](C)CC)NC(=O)CC2(CCCCC2)SSC[C@@H](C(=O)N2CCC[C@H]2C(=O)N[C@@H](CCCNC(=N)N)C(=O)NCC(N)=O)NC(=O)[C@H](CC(N)=O)NC1=O` [d(CH2)5 D-Ile^2 Abu^4 AVP, [1-(β-mercapto-β,β-cyclopentamethylenepropionic acid), 2-D-isoleucine, 4-α-aminobutyric acid]-arginine vasopressin] ([dI]F[Abu]NCPRG-NH2; linker N-5 via X1), the “Anti-Antidiuretic pA2” value was 8.22. Same read-out and setting: then `N=C(N)NCCC[C@H](NC(=O)[C@@H]1CCCN1C(=O)[C@@H]1CSSC2(CCCCC2)CC(=O)N[C@H](Cc2ccccc2)C(=O)N[C@@H](Cc2ccccc2)C(=O)N[C@@H](CC2CCCCC2)C(=O)N[C@@H](CC(N)=O)C(=O)N1)C(=O)NCC(N)=O` [d(CH2)5 D-Phe^2 Cha^4 AVP, [1-(β-mercapto-β,β-cyclopentamethylenepropionic acid), 2-D-phenylalanine, 4-cyclohexylalanine]-arginine vasopressin] ([dF]F[Cha]NCPRG-NH2; linker N-5 via X1), with 7.19. With `CC[C@@H](C)[C@H]1NC(=O)CC2(CCCCC2)SSC[C@@H](C(=O)N2CCC[C@H]2C(=O)N[C@@H](CCCNC(=N)N)C(=O)NCC(N)=O)NC(=O)[C@H](CC(N)=O)NC(=O)[C@H](CC(C)C)NC(=O)[C@H](Cc2ccccc2)NC1=O` [d(CH2)5 D-Ile^2 Leu^4 AVP, [1-(β-mercapto-β,β-cyclopentamethylenepropionic acid), 2-D-isoleucine, 4-leucine]-arginine vasopressin] ([dI]FLNCPRG-NH2; linker N-5 via X1), the “Anti-Antidiuretic pA2” value was 6.80. On the same count and under the same terms, then `N=C(N)NCCC[C@H](NC(=O)[C@@H]1CCCN1C(=O)[C@@H]1CSSC2(CCCCC2)CC(=O)N[C@H](Cc2ccccc2)C(=O)N[C@@H](Cc2ccccc2)C(=O)NCC(=O)N[C@@H](CC(N)=O)C(=O)N1)C(=O)NCC(N)=O` [d(CH2)5 D-Phe^2 Gly^4 AVP, [1-(β-mercapto-β,β-cyclopentamethylenepropionic acid), 2-D-phenylalanine, 4-glycine]-arginine vasopressin] ([dF]FGNCPRG-NH2; linker N-5 via X1), with 5.85; and `C[C@@H](O)[C@@H]1NC(=O)[C@H](Cc2ccccc2)NC(=O)[C@@H](Cc2ccccc2)NC(=O)CC2(CCCCC2)SSC[C@@H](C(=O)N2CCC[C@H]2C(=O)N[C@@H](CCCNC(=N)N)C(=O)NCC(N)=O)NC(=O)[C@H](CC(N)=O)NC1=O` [d(CH2)5 D-Phe^2 Thr^4 AVP, [1-(β-mercapto-β,β-cyclopentamethylenepropionic acid), 2-D-phenylalanine, 4-threonine]-arginine vasopressin] ([dF]FTNCPRG-NH2; linker N-5 via X1), with 7.62; and `CC(C)C[C@@H]1NC(=O)[C@H](Cc2ccccc2)NC(=O)[C@@H](Cc2ccccc2)NC(=O)CC2(CCCCC2)SSC[C@@H](C(=O)N2CCC[C@H]2C(=O)N[C@@H](CCCNC(=N)N)C(=O)NCC(N)=O)NC(=O)[C@H](CC(N)=O)NC1=O` [d(CH2)5 D-Phe^2 Leu^4 AVP, [1-(β-mercapto-β,β-cyclopentamethylenepropionic acid), 2-D-phenylalanine, 4-leucine]-arginine vasopressin] ([dF]FLNCPRG-NH2; linker N-5 via X1), with 6.07.

In the case of `CC[C@H](C)[C@@H]1NC(=O)[C@H](Cc2ccccc2)NC(=O)[C@@H](Cc2ccccc2)NC(=O)CC2(CCCCC2)SSC[C@@H](C(=O)N2CCC[C@H]2C(=O)N[C@@H](CCCNC(=N)N)C(=O)NCC(N)=O)NC(=O)[C@H](CC(N)=O)NC1=O` [d(CH2)5 D-Phe^2 Ile^4 AVP, [1-(β-mercapto-β,β-cyclopentamethylenepropionic acid), 2-D-phenylalanine, 4-isoleucine]-arginine vasopressin] ([dF]FINCPRG-NH2; linker N-5 via X1), the “Anti-Antidiuretic pA2” value is 8.24.

On to `N=C(N)NCCC[C@H](NC(=O)[C@@H]1CCCN1C(=O)[C@@H]1CSSC2(CCCCC2)CC(=O)N[C@H](Cc2ccccc2)C(=O)N[C@@H](Cc2ccccc2)C(=O)N[C@@H](Cc2ccccc2)C(=O)N[C@@H](CC(N)=O)C(=O)N1)C(=O)NCC(N)=O` [d(CH2)5 D-Phe^2 Phe^4 AVP, [1-(β-mercapto-β,β-cyclopentamethylenepropionic acid), 2-D-phenylalanine, 4-phenylalanine]-arginine vasopressin] ([dF]FFNCPRG-NH2; linker N-5 via X1), for which the “Anti-Antidiuretic pA2” value is on record as 6.07.

As to `N=C(N)NCCC[C@H](NC(=O)[C@@H]1CCCN1C(=O)[C@@H]1CSSC2(CCCCC2)CC(=O)N[C@H](Cc2ccccc2)C(=O)N[C@@H](Cc2ccccc2)C(=O)N[C@@H](CCCCN)C(=O)N[C@@H](CC(N)=O)C(=O)N1)C(=O)NCC(N)=O` [d(CH2)5 D-Phe^2 Lys^4 AVP, [1-(β-mercapto-β,β-cyclopentamethylenepropionic acid), 2-D-phenylalanine, 4-lysine]-arginine vasopressin] ([dF]FKNCPRG-NH2; linker N-5 via X1), the “Anti-Antidiuretic pA2” value is 7.22. Still for that read-out and setting: then `C[C@@H]1NC(=O)[C@H](Cc2ccccc2)NC(=O)[C@@H](Cc2ccccc2)NC(=O)CC2(CCCCC2)SSC[C@@H](C(=O)N2CCC[C@H]2C(=O)N[C@@H](CCCNC(=N)N)C(=O)NCC(N)=O)NC(=O)[C@H](CC(N)=O)NC1=O` [d(CH2)5 D-Phe^2 Ala^4 AVP, [1-(β-mercapto-β,β-cyclopentamethylenepropionic acid), 2-D-phenylalanine, 4-alanine]-arginine vasopressin] ([dF]FANCPRG-NH2; linker N-5 via X1), with 7.52; and `CC[C@@H](C)[C@H]1NC(=O)CC2(CCCCC2)SSC[C@@H](C(=O)N2CCC[C@H]2C(=O)N[C@@H](CCCNC(=N)N)C(=O)NCC(N)=O)NC(=O)[C@H](CC(N)=O)NC(=O)[C@H](CCC(N)=O)NC(=O)[C@H](Cc2ccccc2)NC1=O` [d(CH2)5 D-Ile^2 AVP, [1-(β-mercapto-β,β-cyclopentamethylenepropionic acid), 2-D-isoleucine]-arginine vasopressin] ([dI]FQNCPRG-NH2; linker N-5 via X1), with 6.96. As to `CCC[C@@H]1NC(=O)[C@H](Cc2ccccc2)NC(=O)[C@@H](Cc2ccccc2)NC(=O)CC2(CCCCC2)SSC[C@@H](C(=O)N2CCC[C@H]2C(=O)N[C@@H](CCCNC(=N)N)C(=O)NCC(N)=O)NC(=O)[C@H](CC(N)=O)NC1=O` [d(CH2)5 D-Phe^2 Nva^4 AVP, [1-(β-mercapto-β,β-cyclopentamethylenepropionic acid), 2-D-phenylalanine, 4-norvaline]-arginine vasopressin] ([dF]F[Nva]NCPRG-NH2; linker N-5 via X1), the “Anti-Antidiuretic pA2” value is 6.99. For the compound `CC[C@@H](C)[C@H]1NC(=O)CC2(CCCCC2)SSC[C@@H](C(=O)N2CCC[C@H]2C(=O)N[C@@H](CCCNC(=N)N)C(=O)NCC(N)=O)NC(=O)[C@H](CC(N)=O)NC(=O)[C@H](C(C)C)NC(=O)[C@H](Cc2ccccc2)NC1=O` [d(CH2)5 D-Ile^2 VAVP, [1-(β-mercapto-β,β-cyclopentamethylenepropionic acid), 2-D-isoleucine, 4-valine]-arginine vasopressin] ([dI]FVNCPRG-NH2; linker N-5 via X1), the “Anti-Antidiuretic pA2” value is 7.98. Same read-out and setting: the same measure for `CC[C@@H](C)[C@H]1NC(=O)CC2(CCCCC2)SSC[C@@H](C(=O)N2CCC[C@H]2C(=O)N[C@@H](CCCNC(=N)N)C(=O)NCC(N)=O)NC(=O)[C@H](CC(N)=O)NC(=O)[C@H]([C@@H](C)CC)NC(=O)[C@H](Cc2ccccc2)NC1=O` [d(CH2)5 D-Ile^2 Ile^4 AVP, [1-(β-mercapto-β,β-cyclopentamethylenepropionic acid), 2-D-isoleucine, 4-isoleucine]-arginine vasopressin] ([dI]FINCPRG-NH2; linker N-5 via X1): 8.04; for `N=C(N)NCCC[C@H](NC(=O)[C@@H]1CCCN1C(=O)[C@@H]1CSSC2(CCCCC2)CC(=O)N[C@H](Cc2ccccc2)C(=O)N[C@@H](Cc2ccccc2)C(=O)N[C@@H](Cc2ccc(O)cc2)C(=O)N[C@@H](CC(N)=O)C(=O)N1)C(=O)NCC(N)=O` [d(CH2)5 D-Phe^2 Tyr^4 AVP, [1-(β-mercapto-β,β-cyclopentamethylenepropionic acid), 2-D-phenylalanine, 4-tyrosine]-arginine vasopressin] ([dF]FYNCPRG-NH2; linker N-5 via X1): ~ 5.57.

Still in this experiment, the particulars now being: rat, in vivo.
Turning to `CCOc1ccc(C[C@H]2NC(=O)CC3(CCCCC3)SSC[C@@H](C(=O)N3CCC[C@H]3C(=O)N[C@@H](CCCCN)C(=O)NCC(N)=O)NC(=O)[C@H](CC(N)=O)NC(=O)[C@H](C(C)C)NC(=O)[C@H](Cc3ccccc3)NC2=O)cc1` [d(CH2)5 D-Tyr(Et)^2 Val^4 Lys^8 VP] ([dY](Et)FVNCPKG-NH2; linker N-5 via X1), the “Anti-Antidiuretic pA2” value is listed as 7.72. Still for that read-out and setting: then `CCOc1ccc(C[C@@H]2NC(=O)CC3(CCCCC3)SSC[C@@H](C(=O)N3CCC[C@H]3C(=O)N[C@@H](CCCCN)C(=O)NCC(N)=O)NC(=O)[C@H](CC(N)=O)NC(=O)[C@H](C(C)C)NC(=O)[C@H](Cc3ccccc3)NC2=O)cc1` [d(CH2)5 Tyr(Et)^2 Val^4 Lys^8 VP] (Y(Et)FVNCPKG-NH2; linker N-5 via X1), with 7.29.
